Values after ≈ are worked out from the molar mass of the structure shown.

For this series the following is noted: buffer; pH 7.4; 200.0 µM.
`CN(C)CCNC(=O)Cc1ncc(C(F)(F)F)cc1Cl` gave a kinetic solubility of more than 46.5 µg/mL.

`CC(C)CC1(C)NC(=O)N(CC(=O)Nc2ccc3c(c2)CCC3)C1=O` (stereo unspecified) displayed a solubility (kinetic) of more than 51.5 µg/mL.

Regarding `Cc1ccc(CC2C(=O)N(c3cc(C)ccc3C)C(=O)C2C)cc1` (stereo unspecified), the solubility (kinetic) worked out at 4.6 µg/mL (≈ 14.3 µM). Under `O=[N+]([O-])c1ccc(O)c(Nc2c([N+](=O)[O-])ccc3nonc23)c1` stands more than 47.6 µg/mL; under `Cc1nc2ccc(Cl)cc2c(=O)n1-c1ccc([N+](=O)[O-])cc1`, 3.7 µg/mL (≈ 11.7 µM); under `CCN1C(=O)/C(=C2\SC(N3CCOCC3)=NC2=O)c2ccccc21`, 0.9 µg/mL (≈ 2.62 µM). For `Cc1cccnc1NC(=O)Nc1ccccc1`, the solubility (kinetic) turned out to be 4.1 µg/mL (≈ 18 µM). `COC(CNC(=O)CN1CCN(Cc2ccccc2F)C1=O)OC` gave a solubility (kinetic) of more than 50.9 µg/mL.

`CC1CC(C)CN(C(=O)COC(=O)c2c[nH]c3ccccc23)C1` (stereo unspecified): the kinetic solubility was 12.7 µg/mL (≈ 40.4 µM).

In the case of `O=C(Nc1ccc(F)c([N+](=O)[O-])c1)C(=O)c1c(O)[nH]c2ccccc12`, the kinetic solubility is more than 51.5 µg/mL.

For the molecule `Nc1cccc2c1C(=O)N(CCOc1ccccc1F)C2=O`, the solubility (kinetic) was 20.3 µg/mL (≈ 67.6 µM). In the case of `CCOc1c(N2CCOCC2)c(=O)c1=O` it was more than 31.7 µg/mL; in that of `O=[N+]([O-])c1cccc(-c2noc(-c3cccs3)n2)c1`, less than 0.2 µg/mL. Under `CCOC(=O)c1sc(Nc2nc(C)cc(OC)n2)nc1C` stands 5.1 µg/mL (≈ 16.5 µM); under `CN(C(=O)c1ccc2nccnc2c1)C1CCCCC1`, more than 40.4 µg/mL. In the case of `Cc1ccc(NC(=O)CN2C(=O)c3ccccc3C2=O)c(C)c1` it was 4.4 µg/mL (≈ 14.3 µM); in that of `Cc1ccc(C(O)c2ccc(-n3ccnc3)cc2)cc1` (stereo unspecified), 39.5 µg/mL (≈ 149 µM); in that of `COc1ccc(NC(=O)c2cc(S(=O)(=O)N3CCOCC3)ccc2C)cc1S(=O)(=O)N1CCOCC1`, more than 80.9 µg/mL. Molecule `Nc1cc(N2CCCCCC2)c2nonc2c1[N+](=O)[O-]` had a kinetic solubility of 0.9 µg/mL (≈ 3.25 µM). Take `COc1ccccc1CC(=O)NC1CC1`: the kinetic solubility was 29.6 µg/mL (≈ 144 µM). Under `COc1cc(C(N)=O)cc(Cl)c1OC` stands more than 32.3 µg/mL; under `COc1ccc2oc(C(=O)Nc3nc(C)cs3)c(C)c2c1`, 4.8 µg/mL (≈ 15.9 µM).

`CCOC(=O)C1CCCN(CCC(=O)Nc2cc(C)cc(C)c2)C1` (stereo unspecified) had a solubility (kinetic) of more than 49.9 µg/mL. Under `Cc1cccc(C)c1NC(=O)COC(=O)c1cccnc1` stands more than 42.6 µg/mL; under `CC(C)c1ccc(C(C)NC(=O)C2CCCC2)cc1` (stereo unspecified), 2.6 µg/mL (≈ 10 µM). In turn, `COc1ccc(-c2nc(-c3cccnc3)no2)cc1OC` displayed a kinetic solubility of 25.8 µg/mL (≈ 91.1 µM). Regarding `Cc1ccc(S(=O)(=O)NC(=NC(C)C)c2ccccc2)cc1`, the solubility (kinetic) is more than 47.5 µg/mL. In the case of `O=C(CN1C(=O)NC2(CCCC2)C1=O)Nc1cccc(Cl)c1` it was more than 48.3 µg/mL. Molecule `O=C(NC(=S)Nc1ccc(O)cc1)c1cncc(Br)c1` showed a kinetic solubility of more than 52.8 µg/mL. In the case of `COc1ccc(CNC(=O)COC(=O)c2ccc(Br)c(S(=O)(=O)N3CCOCC3)c2)cc1` it was 34.2 µg/mL (≈ 64.8 µM); in that of `COc1cccc(C(=O)Nc2ccc3ccccc3c2)c1`, 1.6 µg/mL (≈ 5.77 µM); in that of `O=C(Nc1ccc(OCC(=O)N2CCOCC2)cc1)c1ccccc1F`, more than 53.8 µg/mL. Under `COc1ccccc1/C=C1\C(=O)NC(=S)N(c2ccccc2)C1=O` stands more than 50.8 µg/mL. In the case of `CCOC(=O)N1CCC(NC(=O)Cc2ccccc2)CC1` it was more than 43.6 µg/mL; in that of `Cc1ccc(Nc2cc(C)nc3ccccc23)c(C)c1`, more than 39.4 µg/mL. Consider `O=C(CSCc1c(F)cccc1Cl)NCCSCc1ccco1`, for which the kinetic solubility is 36.8 µg/mL (≈ 98.4 µM). In the case of `CC(=O)c1ccc(OCCCC(=O)Nc2cccc(S(=O)(=O)N3CCOCC3)c2)cc1` it was 56 µg/mL (≈ 125 µM); in that of `N#C/C(=C\N1CCOCC1)S(=O)(=O)c1ccc(Cl)cc1`, 45 µg/mL (≈ 144 µM). Take `Cc1cc(C)c(S(=O)(=O)NCCCn2ccnc2)cc1C`: the kinetic solubility was more than 46.1 µg/mL. Under `Cc1ccc(CNS(=O)(=O)c2c(C)[nH]c(=O)[nH]c2=O)cc1` stands more than 46.4 µg/mL; under `CC(=O)Nc1sc2c(c1C(N)=O)CCN(Cc1ccccc1)C2.Cl`, more than 54.9 µg/mL; under `COc1ccc(NC(=O)c2cc3ccccc3o2)cc1S(=O)(=O)N1CCCCC1`, 9.2 µg/mL (≈ 22.2 µM). Consider `Fc1ccc(-c2ncc3ccccn23)cc1`, for which the kinetic solubility stood at 14.3 µg/mL (≈ 67.4 µM). As for `O=Cc1c(F)cccc1N1CCCC1`, the kinetic solubility is 15.3 µg/mL (≈ 79.2 µM). Under `O=C(O/N=C1\CCCc2ccccc21)c1cccs1` stands less than 0.6 µg/mL; under `COc1ccc(/C=C/C(=O)NC2CC3CCC2C3)cc1` (stereo unspecified), 6.9 µg/mL (≈ 25.4 µM); under `Cc1cc(C)c(OCC(=O)OC(C)C(=O)NC2CC2)c(C)c1` (stereo unspecified), more than 45.8 µg/mL. Under `O=C(O)C1CC=CCC1C(=O)NCc1ccc(Cl)c(Cl)c1` (stereo unspecified) stands more than 49.2 µg/mL; under `Cc1ccc(C(=O)Nc2ccc(NC(=O)c3cccs3)cc2)c(C)c1`, less than 0.4 µg/mL; under `Cc1ccc(S(=O)(=O)N(C)C)cc1NC(=O)Nc1ccccc1`, less than 0.2 µg/mL.

`CN1CCN(CC(O)COc2ccccc2)CC1` (stereo unspecified) registered a solubility (kinetic) of 33.4 µg/mL (≈ 133 µM). In the case of `N#C/C(=C\c1ccc(F)cc1F)S(=O)(=O)c1ccccn1` it was 42.4 µg/mL (≈ 138 µM). Consider `O=C(CCC(=O)Nc1ccccc1)N/N=C/c1ccncc1`, for which the kinetic solubility is more than 44.4 µg/mL. `O=S(=O)(Nc1cccc2ccccc12)c1cccc2nonc12` returned a solubility (kinetic) of more than 48.8 µg/mL. Under `COc1cc(Cl)c(C)cc1NC(=O)CSC1=NCCS1` stands 11 µg/mL (≈ 33.2 µM); under `O=C(Cn1c(=O)oc2ccccc21)Nc1ccc(F)c(F)c1`, 7.9 µg/mL (≈ 26 µM).

The molecule `Cl.O=C(CN1CCCCC1)NC1CCc2cc3c(cc21)CCC3` (stereo unspecified) displayed a kinetic solubility of 45.6 µg/mL. In the case of `Cc1ccc(C(=O)C2CCN(C(=S)NCC3CCCO3)CC2)cc1` (stereo unspecified) it was 46.7 µg/mL (≈ 135 µM); in that of `COC(=O)C1CCN(C(=O)COc2ccc(S(=O)(=O)N3CCOCC3)cc2Cl)CC1`, more than 69.1 µg/mL. In the case of `CCc1ccc(CN(C)C(=O)c2ccc3c(c2)OCCO3)cc1` it was more than 46.7 µg/mL; in that of `CC1(C)CC2CC(C)(CN2/C=C2/CCCCC2=O)C1` (stereo unspecified), 22.6 µg/mL (≈ 86.5 µM). In turn, `CC(C)CCc1c(O)nc(SCC(C)C)[nH]c1=O` gave a kinetic solubility of more than 40.6 µg/mL. `N#Cc1ccc(C(=O)Nc2ccc3ccccc3c2)cc1` yielded a solubility (kinetic) of 0.4 µg/mL (≈ 1.47 µM).

`CNc1nc2c(N)ncnc2n1[C@H]1O[C@@H](CO)[C@H](O)[C@@H]1O` gave a solubility (kinetic) of more than 44.4 µg/mL.

Turning to `Cc1cc(/C(N)=N/OC(=O)Nc2cccc(C(F)(F)F)c2)no1`, the solubility (kinetic) stood at 7.2 µg/mL (≈ 21.9 µM). In the case of `O=C(CSc1ccc2c(c1)OCCO2)Nc1cccnc1` it was more than 45.4 µg/mL; in that of `Cc1ccc(S(=O)(=O)Nc2ccccc2C(O)c2ccccc2)cc1` (stereo unspecified), 6.1 µg/mL (≈ 17.3 µM). `C=C(C)COc1ccc(-c2nc(N)ncc2-c2ccc(Cl)cc2)c(O)c1` showed a kinetic solubility of 1.9 µg/mL (≈ 5.17 µM). Under `COc1ccc(/C=C2\SC(=N)N(c3ccc(F)cc3)C2=O)cc1OC` stands 3.8 µg/mL (≈ 10.6 µM); under `COc1ccc(CNc2ncnc3sccc23)cc1`, more than 40.7 µg/mL; under `COc1ccc(NC(=O)c2ccc3c(c2)NC(=O)CO3)cc1OC`, 10.2 µg/mL (≈ 31.1 µM). As for `CC1CCN(C(=S)c2cccc(O)c2)CC1`, the solubility (kinetic) worked out at 32.8 µg/mL (≈ 139 µM). `O=C(Cc1ccc([N+](=O)[O-])cc1)OCc1c(F)cccc1Cl` returned a solubility (kinetic) of less than 0.7 µg/mL. Under `CCc1ccc(/C=C/c2c([N+](=O)[O-])c(=O)n(C)c(=O)n2C)cc1` stands 7.6 µg/mL (≈ 24.1 µM); under `Cc1cccc(NC(=O)COC(=O)c2ccc3nc(C)c(C)nc3c2)c1`, 3.6 µg/mL (≈ 10.3 µM); under `O=C(CCc1ccccc1)NC1CCCc2ccccc21` (stereo unspecified), 19.2 µg/mL (≈ 68.7 µM). For `N#Cc1ccccc1S(=O)(=O)N1CCN(C(=O)C2CCCC2)CC1`, the kinetic solubility is more than 52.1 µg/mL.

`COc1ccc2[nH]c(C(=O)Nc3ccc(C)c(F)c3)cc2c1` showed a solubility (kinetic) of 0.7 µg/mL (≈ 2.35 µM). In the case of `CC(Sc1nccn1C)C(=O)c1ccc(Br)cc1` (stereo unspecified) it was 42.9 µg/mL (≈ 132 µM); in that of `CN(C)C(=O)c1cc(C(=O)c2ccc(F)cc2C(F)(F)F)c[nH]1`, 12.6 µg/mL (≈ 38.4 µM). As for `Cc1ccc(N(C)S(=O)(=O)c2cccc(C(=O)OCC(=O)c3c(N)n(C)c(=O)n(C)c3=O)c2)cc1`, the solubility (kinetic) is 8.1 µg/mL (≈ 16.2 µM). Under `CCOC(=O)C(=O)N1CCN(c2ccccc2OC)CC1` stands more than 43.9 µg/mL; under `NC(=O)COc1ccc(C(=O)/C=C2/C(=O)Nc3ccccc32)cc1`, 6.4 µg/mL (≈ 19.9 µM); under `C=CCOc1ccc(CNCC2CCCO2)cc1.Cl` (stereo unspecified), more than 42.6 µg/mL. `COc1ccc(CNC(=O)CN2CCN(S(=O)(=O)c3c(C)c(C)cc(C)c3C)CC2)cc1OC` returned a solubility (kinetic) of 3.5 µg/mL (≈ 7.15 µM).

`CCOc1ccc(NC(=O)Nc2cccc(C)n2)cc1`: the kinetic solubility is less than 0.2 µg/mL.

For `CC1CCN(C(=O)/C(=C\c2ccccc2)NC(=O)c2ccccc2)CC1`, the solubility (kinetic) was found to be 52.2 µg/mL (≈ 150 µM). The molecule `COc1ccc(CNC(=O)Cc2cn(C)c3ccccc23)c(OC)c1` had a kinetic solubility of more than 50.8 µg/mL.

For the molecule `O=c1c2ccccc2nc(/C=C/c2c[nH]c3ccccc23)n1CCO`, the solubility (kinetic) was 8.6 µg/mL (≈ 26 µM).

With `O=[N+]([O-])c1cnc(Nc2ccccc2)nc1Nc1ccccc1`, the kinetic solubility was determined as 0.2 µg/mL (≈ 0.651 µM). Under `Oc1ccc(Nc2nc(-c3cccnc3)cs2)cc1` stands 0.8 µg/mL (≈ 2.97 µM).

`CC1CC(C)CN(C(=O)c2cccc(NC(=O)CC3SC(N4CCCCC4)=NC3=O)c2)C1` (stereo unspecified) gave a solubility (kinetic) of 67.1 µg/mL (≈ 147 µM). Consider `CCOc1ccc(S(=O)(=O)NCCC(=O)NC2CCC(C)CC2)cc1` (stereo unspecified), for which the solubility (kinetic) was determined as 37.7 µg/mL (≈ 102 µM). In the case of `O=C(CN1C(=O)c2ccccc2C1=O)c1ccc(F)cc1` it was 39.5 µg/mL (≈ 139 µM).

The molecule `CNc1nc(-c2ccc(OC)cc2)c(-c2ccc(OC)cc2)s1` yielded a kinetic solubility of 1.8 µg/mL (≈ 5.51 µM). As for `O=C(Nc1cccc(NC(=O)c2ccccc2)n1)c1ccccc1`, the kinetic solubility came out at 16.8 µg/mL (≈ 52.9 µM). Under `NC(=O)CCCc1nc(-c2ccccc2)no1` stands more than 34.7 µg/mL; under `CN(C)c1cc(-c2ccccc2)nc(-c2ccccc2)n1`, less than 0.2 µg/mL.

As to `Cc1cccc(C)c1NC(=O)CCn1cnc2ccccc2c1=O`, the solubility (kinetic) is more than 48.2 µg/mL. Under `CN(c1ccccc1)S(=O)(=O)c1ccc2[nH]c(=O)oc2c1` stands more than 45.6 µg/mL; under `O=c1c2ccccc2ncn1-c1ccc(Cl)cc1`, 8.7 µg/mL (≈ 33.9 µM).

What is called solubility (kinetic) is the concentration staying in solution when a stock, usually in DMSO, is diluted into the medium.

(Values after PubChem BioAssay AID1996.)
